The text below walks through data of ChEMBL document CHEMBL1138016, “Azaadamantane benzamide 5-HT4 agonists: gastrointestinal prokinetic SC-54750” (Bioorg Med Chem Lett, 2004).

Experiment [1] is described as follows: Effective dose required towards 5-hydroxytryptamine 4 receptor as agonism in rat tunica muscularis mucosae (TMM).
Experiment [2] concerns the target T1, Serotonin 3 receptor (5HT3) (Mus musculus) (UniProt Q9JHJ5+P23979). Description: Percent inhibition of 5-hydroxytryptamine 3 receptor after intraperitoneal administration at dose of 3 mpk was determined in mice by Von Bezold-Jarisch reflex assay.
Experiment [3] deals with T1, Serotonin 3 receptor (5HT3) (Mus musculus). The experiment in a line: Percent inhibition of 5-hydroxytryptamine 3 receptor after intraperitoneal administration at dose of 10 mpk was determined in mice by Von Bezold-Jarisch reflex assay.
For experiment [4] the target is unchanged. The experiment in a line: Percent inhibition of 5-hydroxytryptamine 3 receptor after intraperitoneal administration at dose of 0.3 mpk was determined in mice by Von Bezold-Jarisch reflex assay.
For experiment [5] the target is unchanged. The experiment in a line: Percent inhibition of 5-hydroxytryptamine 3 receptor after intraperitoneal administration at dose of 0.03 mpk was determined in mice by Von Bezold-Jarisch reflex assay.
Experiment [6] shares this target. The experiment in a line: Percent inhibition of 5-hydroxytryptamine 3 receptor after intraperitoneal administration at dose of 0.1 mpk was determined in mice by Von Bezold-Jarisch reflex assay.
The target is the same in experiment [7]. The experiment in a line: Percent inhibition of 5-hydroxytryptamine 3 receptor after intraperitoneal administration at dose of 1 mpk was determined in mice by Von Bezold-Jarisch reflex assay.
Experiment [8] in a line: Concentration required for inhibition of Dopamine receptor D1 using [3H]SCH-23,390 as the radioligand.
The nature of experiment [9]: Concentration required for inhibition of 5-hydroxytryptamine 3 receptor using [3H]GR-65630 as the radioligand.
Experiment [10] addresses Serotonin 2 (5-HT2) receptor (Homo sapiens, UniProt P41595+P28223+P28335). It counts as protein assay.
The nature of experiment [11]: Concentration required for inhibition of Dopamine receptor D2 using [3H]spiperone as the radioligand.
The target of experiment [12] is T2, Adrenergic receptor alpha-2 (Homo sapiens, UniProt P08913+P18825+P18089).
T2 sequence (P08913 whole entry): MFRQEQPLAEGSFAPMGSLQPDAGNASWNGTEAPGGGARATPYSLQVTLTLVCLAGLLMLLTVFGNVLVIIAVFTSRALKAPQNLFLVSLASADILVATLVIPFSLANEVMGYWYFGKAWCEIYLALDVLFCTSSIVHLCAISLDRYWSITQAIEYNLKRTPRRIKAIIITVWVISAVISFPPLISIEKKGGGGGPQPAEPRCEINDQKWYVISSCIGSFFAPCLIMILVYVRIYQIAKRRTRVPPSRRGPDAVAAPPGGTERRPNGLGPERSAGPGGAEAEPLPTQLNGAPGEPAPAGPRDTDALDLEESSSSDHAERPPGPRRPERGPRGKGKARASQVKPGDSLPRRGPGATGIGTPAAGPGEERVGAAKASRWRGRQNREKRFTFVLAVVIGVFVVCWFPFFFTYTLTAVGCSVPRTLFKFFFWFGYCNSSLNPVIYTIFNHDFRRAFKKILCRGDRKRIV
T2 sequence (P18825 whole entry): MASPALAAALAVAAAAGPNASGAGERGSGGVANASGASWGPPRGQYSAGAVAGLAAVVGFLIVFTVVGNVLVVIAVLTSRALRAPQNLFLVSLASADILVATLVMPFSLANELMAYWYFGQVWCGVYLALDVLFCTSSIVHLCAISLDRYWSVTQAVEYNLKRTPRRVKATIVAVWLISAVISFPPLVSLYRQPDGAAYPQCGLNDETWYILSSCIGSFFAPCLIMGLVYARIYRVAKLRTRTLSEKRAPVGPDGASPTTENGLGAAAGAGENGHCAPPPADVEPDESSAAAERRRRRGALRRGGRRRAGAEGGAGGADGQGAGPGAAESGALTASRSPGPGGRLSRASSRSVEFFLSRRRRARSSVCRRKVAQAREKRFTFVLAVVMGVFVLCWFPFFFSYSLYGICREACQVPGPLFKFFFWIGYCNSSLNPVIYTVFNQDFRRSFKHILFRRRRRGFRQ
T2 sequence (P18089 whole entry): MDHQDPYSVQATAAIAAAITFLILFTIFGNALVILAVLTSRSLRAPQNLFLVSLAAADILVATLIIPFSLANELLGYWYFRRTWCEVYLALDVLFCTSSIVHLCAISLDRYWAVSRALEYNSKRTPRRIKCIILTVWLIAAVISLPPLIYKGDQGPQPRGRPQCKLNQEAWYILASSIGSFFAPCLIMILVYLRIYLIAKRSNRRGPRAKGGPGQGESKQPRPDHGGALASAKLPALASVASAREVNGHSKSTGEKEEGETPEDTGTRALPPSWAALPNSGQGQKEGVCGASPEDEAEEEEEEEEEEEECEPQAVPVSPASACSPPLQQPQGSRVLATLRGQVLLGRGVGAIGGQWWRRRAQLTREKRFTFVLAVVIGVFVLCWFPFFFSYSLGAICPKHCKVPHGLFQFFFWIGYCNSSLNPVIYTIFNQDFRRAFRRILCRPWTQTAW
Description: Concentration required for inhibition of alpha-2 adrenergic receptor. It counts as protein assay.

For a further experiment, the target named is Adrenergic receptor beta (Homo sapiens, UniProt P08588+P07550+P13945). The experiment in a line: Concentration required for inhibition of beta adrenergic receptor. Type of experiment: protein assay.
Experiment [13] has as its target T3, Adrenergic receptor alpha-1 (Homo sapiens, UniProt P35348+P25100+P35368).
T3 sequence (P35348 whole entry): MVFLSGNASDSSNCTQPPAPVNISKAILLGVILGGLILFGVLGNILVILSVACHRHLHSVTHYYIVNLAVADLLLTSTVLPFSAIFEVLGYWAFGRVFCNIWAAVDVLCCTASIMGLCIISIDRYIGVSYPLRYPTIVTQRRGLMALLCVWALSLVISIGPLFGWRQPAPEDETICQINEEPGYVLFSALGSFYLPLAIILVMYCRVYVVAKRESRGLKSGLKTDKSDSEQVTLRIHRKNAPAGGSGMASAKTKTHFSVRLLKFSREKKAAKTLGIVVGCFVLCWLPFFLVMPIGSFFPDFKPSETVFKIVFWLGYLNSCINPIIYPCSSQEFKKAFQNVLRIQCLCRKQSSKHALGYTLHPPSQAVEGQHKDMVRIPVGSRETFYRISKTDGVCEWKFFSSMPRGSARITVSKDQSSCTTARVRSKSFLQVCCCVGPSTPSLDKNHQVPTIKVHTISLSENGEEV
T3 sequence (P25100 whole entry): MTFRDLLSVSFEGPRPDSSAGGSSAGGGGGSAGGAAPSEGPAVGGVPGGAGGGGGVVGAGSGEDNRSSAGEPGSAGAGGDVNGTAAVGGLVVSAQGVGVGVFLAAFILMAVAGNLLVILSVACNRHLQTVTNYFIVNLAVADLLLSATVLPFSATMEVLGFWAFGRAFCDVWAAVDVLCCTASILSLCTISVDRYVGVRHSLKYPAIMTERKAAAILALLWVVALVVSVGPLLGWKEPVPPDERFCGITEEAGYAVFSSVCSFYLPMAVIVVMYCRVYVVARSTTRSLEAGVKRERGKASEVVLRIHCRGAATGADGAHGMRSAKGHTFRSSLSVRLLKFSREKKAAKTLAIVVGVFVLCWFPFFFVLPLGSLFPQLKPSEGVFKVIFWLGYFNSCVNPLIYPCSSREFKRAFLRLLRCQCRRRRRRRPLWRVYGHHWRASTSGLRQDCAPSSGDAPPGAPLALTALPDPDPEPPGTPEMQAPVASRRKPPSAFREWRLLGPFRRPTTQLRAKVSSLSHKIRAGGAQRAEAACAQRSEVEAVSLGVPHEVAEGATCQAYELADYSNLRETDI
T3 sequence (P35368 whole entry): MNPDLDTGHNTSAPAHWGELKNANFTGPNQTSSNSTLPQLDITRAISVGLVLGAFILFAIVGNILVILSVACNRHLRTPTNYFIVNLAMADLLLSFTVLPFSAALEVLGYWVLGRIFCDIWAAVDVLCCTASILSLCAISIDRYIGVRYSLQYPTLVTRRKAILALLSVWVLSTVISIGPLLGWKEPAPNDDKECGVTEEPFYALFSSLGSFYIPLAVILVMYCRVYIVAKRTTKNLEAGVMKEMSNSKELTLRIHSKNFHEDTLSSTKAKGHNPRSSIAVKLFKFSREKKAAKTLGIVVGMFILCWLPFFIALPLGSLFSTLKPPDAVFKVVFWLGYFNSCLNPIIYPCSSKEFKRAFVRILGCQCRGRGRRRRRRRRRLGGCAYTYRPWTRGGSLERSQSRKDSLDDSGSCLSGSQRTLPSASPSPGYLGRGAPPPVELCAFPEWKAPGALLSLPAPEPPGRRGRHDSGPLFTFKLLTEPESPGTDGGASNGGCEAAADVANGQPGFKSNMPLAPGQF
The experiment in a line: Concentration required for inhibition of alpha-1 adrenergic receptor using [3H]prazosin as the radioligand. It counts as protein assay.

The nature of experiment [14]: Concentration required for inhibition of 5-hydroxytryptamine 1 receptor using [3H]-5-HT as the radioligand.
Experiment [15] deals with T1, Serotonin 3 receptor (5HT3) (Mus musculus). Description: Percent inhibition of 5-hydroxytryptamine 3 receptor after intraperitoneal administration at dose of 8 mpk was determined in mice by Von Bezold-Jarisch reflex assay.
The target of experiment [16] is T4, Serotonin 3 (5-HT3) receptor (Rattus norvegicus, UniProt P35563+Q9JJ16).
T4 sequence (P35563 whole entry): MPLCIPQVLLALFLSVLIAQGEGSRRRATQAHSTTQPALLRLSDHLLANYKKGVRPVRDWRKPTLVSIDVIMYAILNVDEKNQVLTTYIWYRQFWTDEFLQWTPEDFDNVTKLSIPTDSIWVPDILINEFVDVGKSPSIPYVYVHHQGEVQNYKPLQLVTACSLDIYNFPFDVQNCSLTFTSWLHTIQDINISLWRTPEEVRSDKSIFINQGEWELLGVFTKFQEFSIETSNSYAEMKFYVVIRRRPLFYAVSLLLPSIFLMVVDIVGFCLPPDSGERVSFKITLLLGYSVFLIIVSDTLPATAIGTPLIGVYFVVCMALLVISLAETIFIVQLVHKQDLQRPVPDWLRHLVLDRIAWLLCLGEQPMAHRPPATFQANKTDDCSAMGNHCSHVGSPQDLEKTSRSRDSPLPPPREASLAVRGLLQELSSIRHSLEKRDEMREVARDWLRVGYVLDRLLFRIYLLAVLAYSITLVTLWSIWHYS
T4 sequence (Q9JJ16 whole entry): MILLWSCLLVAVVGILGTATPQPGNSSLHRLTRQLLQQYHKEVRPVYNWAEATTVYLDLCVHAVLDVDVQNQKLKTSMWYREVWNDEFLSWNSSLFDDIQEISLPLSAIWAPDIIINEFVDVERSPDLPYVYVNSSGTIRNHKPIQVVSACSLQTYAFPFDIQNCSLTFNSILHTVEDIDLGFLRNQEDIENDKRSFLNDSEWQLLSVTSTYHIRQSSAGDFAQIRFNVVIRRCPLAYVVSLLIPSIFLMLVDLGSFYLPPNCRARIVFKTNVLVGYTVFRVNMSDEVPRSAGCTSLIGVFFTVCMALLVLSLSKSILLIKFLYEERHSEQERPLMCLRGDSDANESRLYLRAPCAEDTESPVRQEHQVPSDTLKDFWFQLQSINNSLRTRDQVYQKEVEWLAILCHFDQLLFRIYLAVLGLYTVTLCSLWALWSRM
The experiment in a line: Binding affinity towards 5-hydroxytryptamine 3 receptor using [3H]GR-65630 as the radioligand in male rat cortical tissue. Type of experiment: protein-complex assay.

T1 sequence (P23979 whole entry, looked up): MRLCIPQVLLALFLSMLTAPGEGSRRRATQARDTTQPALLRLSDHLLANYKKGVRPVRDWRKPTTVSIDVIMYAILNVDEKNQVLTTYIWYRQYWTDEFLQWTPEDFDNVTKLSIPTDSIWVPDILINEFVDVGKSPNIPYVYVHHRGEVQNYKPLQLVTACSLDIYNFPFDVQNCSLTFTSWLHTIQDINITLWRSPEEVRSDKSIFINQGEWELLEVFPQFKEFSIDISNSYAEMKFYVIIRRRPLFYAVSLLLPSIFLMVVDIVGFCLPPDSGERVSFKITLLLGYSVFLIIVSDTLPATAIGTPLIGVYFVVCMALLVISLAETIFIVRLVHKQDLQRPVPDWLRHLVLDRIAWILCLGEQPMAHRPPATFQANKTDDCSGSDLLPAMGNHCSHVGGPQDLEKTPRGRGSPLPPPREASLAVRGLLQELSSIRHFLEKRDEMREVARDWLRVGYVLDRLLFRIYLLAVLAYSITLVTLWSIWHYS
T1 sequence (Q9JHJ5 whole entry, looked up): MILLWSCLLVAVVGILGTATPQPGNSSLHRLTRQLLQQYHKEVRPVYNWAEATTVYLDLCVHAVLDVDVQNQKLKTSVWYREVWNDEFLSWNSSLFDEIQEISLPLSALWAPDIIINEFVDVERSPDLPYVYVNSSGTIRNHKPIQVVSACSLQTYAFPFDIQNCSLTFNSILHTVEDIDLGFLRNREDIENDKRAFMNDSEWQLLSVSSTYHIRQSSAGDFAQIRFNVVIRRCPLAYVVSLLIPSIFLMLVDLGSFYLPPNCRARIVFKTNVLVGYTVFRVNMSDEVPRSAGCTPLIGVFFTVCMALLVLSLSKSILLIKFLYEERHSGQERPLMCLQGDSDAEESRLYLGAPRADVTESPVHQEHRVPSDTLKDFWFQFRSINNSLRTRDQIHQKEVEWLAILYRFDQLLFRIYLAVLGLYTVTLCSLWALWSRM

As usually defined, the inhibition is the share of the control response that was lost under treatment. Read a low inhibition as a response near the control. `COc1cc(N)c(Cl)cc1C(=O)NC1C2CC3CC1CN(C3)C2` (stereo in doubt; 9b): the ED50 in [1] amounted to 262 nM. Further, the inhibition in experiment [2] was 81%; in experiment [3], 86%; in experiment [4], 70%; in [5], 61%; in experiment [6], 64%; in experiment [7], 75%.
Usually IC50 stands for the concentration that gives 50% inhibition. Read a high IC50 as weaker potency. As to `COc1cc(N)c(Cl)cc1C(=O)N[C@@H]1C2CC3CN(C2)CC31` (stereo not given in full), the IC50 in experiment [8] was above 10000 nM; in experiment [9] it was 2.3 nM; in experiment [10], above 10000 nM; in experiment [11] it was above 10000 nM; in [12], above 10000 nM; against Adrenergic receptor beta, above 10000 nM. The IC50 in experiment [13] and in experiment [14] was above 10000 nM throughout. The compound further showed an ED50 in experiment [1] of 51.3 nM.
In experiment [1], `COc1cc(N)c(Cl)cc1C(=O)NC1C2CC3CC1CN(C3)C2` (stereo in doubt; 9a) yielded an ED50 of 538 nM. For the same compound, the inhibition in experiment [2] was 0%; in [3], 85%.
`COc1cc(N)c(Cl)cc1C(=O)NCC1C2CC3CC1CN(C3)C2` (stereo in doubt; 9c): the inhibition in experiment [15] came out at 82%; in experiment [3] it was 88%; in [4] it was 75%; in [5], 0%; in experiment [6] it was 60%; in experiment [7], 82%.
As a reminder, the Ki is the equilibrium dissociation constant of an inhibitor or competing ligand from its target. Turning to `COc1cc(N)c(Cl)cc1C(=O)NCC1C2CC3CC1CN(C3)C2` (stereo in doubt; 9d) [listing 1 of 2 here], the half-inhibitory concentration (IC50) in experiment [9] was 11 nM. Further, in [16], the affinity corresponds to a Ki of 144 nM.
For the compound `COc1cc(N)c(Cl)cc1C(=O)NCC1C2CC3CC1CN(C3)C2` (stereo in doubt; 9d) [listing 2 of 2 here], the inhibition in [2] was 82%; in experiment [3], 85%; in experiment [7], 0%.
Regarding `COc1cc(N)c(Cl)cc1C(=O)NC1CCN(CCCOc2ccc(F)cc2)CC1OC` (stereo not given) [CISAPRIDE], the IC50 in experiment [8] is 1700 nM; against Adrenergic receptor beta, above 10000 nM; in [13] it was 30 nM; in experiment [14], above 10000 nM. For the same compound, the ED50 in [1] worked out at 54.7 nM.
